According to patent publication US7691901B2, “Carotenoid analogs or derivatives for the inhibition and amelioration of inflammation” (Cardax Pharmaceuticals Inc., priority 2004, dated 2010):
One block for each compound: values may come before it.

Legend:
[1] = format: physicochemical
Experimental: Determination of aqueous solubility/dispersibility. 30.13 mg of 3 was added to 1 mL of USP-purified water. The sample was rotated for 2 hours, then centrifuged for 5 minutes. […] A 125-μL aliquot of the solution was then diluted to 25 mL. The sample was analyzed by UV/Vis spectroscopy at 436 nm, and the absorbance was compared to a standard curve compiled from 4 standards of known concentration.
The sample was rotated for 2 hours, then centrifuged for 5 minutes. […] A 125-μL aliquot of the solution was then diluted to 25 mL. The sample was analyzed by UV/Vis spectroscopy at 411 nm, and the absorbance was compared to a standard curve compiled from 4 standards of known concentration.

superoxide anion = assay: Direct superoxide anion scavenging by EPR spectroscopy (DEPMPO spin-trap) in PMA-stimulated isolated human neutrophils; format: cell-based
Experimental: Leukocyte Isolation and Preparation. Human polymorphonuclear leukocytes (PMNs) were isolated from freshly sampled venous blood of a single volunteer by Percoll density gradient centrifugation as described previously. Briefly, each 10 mL of whole blood was mixed with 0.8 mL of 0.1 M EDTA and 25 mL of saline. The diluted blood was then layered over 9 mL of Percoll at a specific density of 1.080 g/mL. After centrifugation at 400×g for 20 min at 20° C., the plasma, mononuclear cell, and Percoll layers were removed. Erythrocytes were subsequently lysed by addition of 18 mL of ice-cold water for 30 s, followed by 2 mL of 10× PIPES buffer (25 mM PIPES, 110 mM NaCl, and 5 mM KCl, titrated to pH 7.4 with NaOH). Cells were then pelleted at 4° C., the supernatant was decanted, and the procedure was repeated. After the second hypotonic cell lysis, cells were washed twice with PAG buffer [PIPES buffer containing 0.003% human serum albumin (HSA) and 0.1% glucose]. Afterward, PMNs were counted by light microscopy on a hemocytometer. The isolation yielded PMNs with a purity of >95%. The final pellet was then suspended in PAG-CM buffer (PAG buffer with 1 mM CaCl2 and 1 mM MgCl2). EPR Measurements. All EPR measurements were performed using a Bruker ER 300 EPR spectrometer operating at X-band with a TM110 cavity as previously described. The microwave frequency was measured with a Model 575 microwave counter (EIP Microwave, Inc., San Jose, Calif.). To measure superoxide anion (O2) generation from phorbol-ester (PMA)-stimulated PMNs, EPR spin-trapping studies were performed using the spin trap DEPMPO (Oxis, Portland, Oreg.) at 10 mM. 1×10^6 PMNs were stimulated with PMA (1 ng/mL) and loaded into capillary tubes for EPR measurements. To determine the radical scavenging ability of 3 and 9 in aqueous and ethanolic formulations, PMNs were pre-incubated for 5 minutes with test compound, followed by PMA stimulation.
Instrument settings used in the spin-trapping experiments were as follows: modulation amplitude, 0.32 G; time constant, 0.16 s; scan time, 60 s; modulation frequency, 100 kHz; microwave power, 20 milliwatts; and microwave frequency, 9.76 GHz. The samples were placed in a quartz EPR flat cell, and spectra were recorded. The component signals in the spectra were identified and quantified as reported previously.

[2] = target: human serum albumin (HSA) (Homo sapiens, UniProt P02768); assay: Plasma-protein binding studies in vitro
human serum albumin (HSA), sequence (P02768 25-609): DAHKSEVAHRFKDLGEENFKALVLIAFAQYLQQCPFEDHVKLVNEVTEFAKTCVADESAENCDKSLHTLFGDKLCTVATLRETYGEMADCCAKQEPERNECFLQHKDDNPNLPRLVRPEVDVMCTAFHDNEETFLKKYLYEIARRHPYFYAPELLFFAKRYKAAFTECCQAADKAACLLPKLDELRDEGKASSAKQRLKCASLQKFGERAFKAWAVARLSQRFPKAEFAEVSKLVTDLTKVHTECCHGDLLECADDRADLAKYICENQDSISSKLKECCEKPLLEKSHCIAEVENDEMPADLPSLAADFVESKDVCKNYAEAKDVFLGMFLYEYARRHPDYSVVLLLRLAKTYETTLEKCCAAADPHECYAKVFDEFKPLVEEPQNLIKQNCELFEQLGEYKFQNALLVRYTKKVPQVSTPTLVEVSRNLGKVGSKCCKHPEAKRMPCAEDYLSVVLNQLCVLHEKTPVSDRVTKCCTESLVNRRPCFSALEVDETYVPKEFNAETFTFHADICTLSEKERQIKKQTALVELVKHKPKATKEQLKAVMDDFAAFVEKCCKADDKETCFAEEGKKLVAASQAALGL

Compound: 3,3′-Diphosphoryloxy-β,ε-carotene sodium salt [compound 9]
increase in dispersibility of diphosphate salt over disuccinate sodium salt [1]: > 10 fold
Mean (% inhibition) of superoxide anion signal (superoxide anion; 0.1 mM, 40% EtOH (EtOH vehicle alone 5%), listed as Lutein Diphosphate Sodium Salt, sodium salt): 18.0%
Mean (% inhibition) of superoxide anion signal (superoxide anion; 0.1 mM, 40% EtOH (EtOH vehicle alone 5%), listed as disodium diphosphate derivative of natural source lutein, sodium salt): 18%
Mean (% inhibition) of superoxide anion signal (superoxide anion; 0.1 mM, Water, listed as disodium diphosphate derivative of natural source lutein, sodium salt): 0%
Mean (% inhibition) of superoxide anion signal (superoxide anion; 1.0 mM, Water): 9.3%
Mean (% inhibition) of superoxide anion signal (superoxide anion; 3.0 mM, Water): 72.3%
Mean (% inhibition) of superoxide anion signal (superoxide anion; 5.0 mM, Water, listed as Lutein Diphosphate Sodium Salt, sodium salt): 91.0%
Mean (% inhibition) of superoxide anion signal (superoxide anion; 5.0 mM, Water, listed as disodium diphosphate derivative of natural source lutein, sodium salt): more than 90%

water solubility [1]: insoluble in water
Compound: CC1=C(/C=C/C(C)=C/C=C/C(C)=C/C=C/C=C(C)/C=C/C=C(C)/C=C/C2=C(C)C(=O)[C@@H](O)CC2(C)C)C(C)(C)C[C@H](O)C1=O [astaxanthin, reference compound]

Compound: CC(C=CC=C(C)C=CC1=C(C)C(=O)C(OC(=O)CCC(=O)[O-])CC1(C)C)=CC=CC=C(C)C=CC=C(C)C=CC1=C(C)C(=O)C(OC(=O)CCC(=O)[O-])CC1(C)C.[Na+].[Na+] [meso-(3R,3′S)-disodium disuccinate astaxanthin]
binding to human serum albumin [2]: bound immediately and preferentially to human serum albumin (HSA)

Compound: β,ε-carotenyl 3,3′-disuccinate sodium salt [compound 3]
Aqueous dispersibility (concentration of supernatant) ([1]; 2 h): 2.85 mg/mL
Mean (% inhibition) of superoxide anion signal (superoxide anion; 0.1 mM, 40% EtOH (EtOH vehicle alone 5%), listed as Lutein Disuccinate Sodium Salt, sodium salt): 5.0%
Mean (% inhibition) of superoxide anion signal (superoxide anion; 0.1 mM, 40% EtOH (EtOH vehicle alone 5%), listed as disodium disuccinate derivative of natural source lutein, sodium salt): did not significantly increase scavenging
Mean (% inhibition) of superoxide anion signal (superoxide anion; 0.1 mM, Water): 0%
Mean (% inhibition) of superoxide anion signal (superoxide anion; 1.0 mM, Water): 13.0%
Mean (% inhibition) of superoxide anion signal (superoxide anion; 3.0 mM, Water): 61.7%
Mean (% inhibition) of superoxide anion signal (superoxide anion; 5.0 mM, Water, listed as Lutein Disuccinate Sodium Salt, sodium salt): 74.7%
Mean (% inhibition) of superoxide anion signal (superoxide anion; 5.0 mM, Water, listed as disodium disuccinate derivative of natural source lutein, sodium salt): ~75%
Mean (% inhibition) of superoxide anion signal (superoxide anion; 5.0 mM, Water, listed as disuccinate lutein sodium salt, sodium salt): 75%
